Patent US20130216533A1, “BIOLOGICAL MARKERS FOR IDENTIFYING PATIENTS FOR TREATMENT WITH VEGF ANTAGONISTS” (Genentech, Inc., priority 2012, published 2013)

Assays:
[1] = test system: metastatic colorectal carcinoma (CRC); assay: NO16966 first-line metastatic CRC trial, PFS and OS stratified by 22-gene VDV signature; type: in vivo, human
Procedure: Sections from archival tumor samples from patients enrolled in the XELOX treatment arms of NO 16966 were evaluated by a pathologist and high tumor content area macro-dissected for subsequent RNA isolation using the FFPE RNA isolation kit (Roche; 7-10 sections per patient). RNA levels were assessed after cDNA synthesis following standard techniques, with the qPCR protocol on the Fluidigm Biomark platform according to the manufacturer's protocol.
Quantitative histological data from various animal experiments were plotted using Microsoft Excel software. Student's t test was applied to compare data sets of interest and differences with p values <0.05 were considered significant. 103 biopsies out of 1017 patients from the XELOX (capecitabine and oxaliplatin)-containing arm in the NO16966 trial were analyzed for the gene expression of VDV genes. qRT-PCR values were normalized by the housekeeping genes and relative to a universal reference sample to derive delta-delta Ct values. Subsequently, the delta-delta Ct value of each of the 22 VDV genes was mean centered and variance scaled to a Z-score.
For each sample i for which all of the VDV genes were analyzed, a VDV signature score (VDVi) was calculated. The VDVi represents a weighted average of z-scores across the analyzed VDV genes and is given by the algorithm:
wherein Zg,i is the standardized z-score of the qRT-PCR value for gene g of sample i and n, in this instance, is 22. The VDVi value provides quantitative information regarding the extent to which the expression of a particular set of genes is collectively overexpressed or underexpressed relative to a centered mean.
To compare the clinical outcomes (PFS and OS) between marker and/or treatment subgroups, log-rank tests and Cox regression were used, with median time calculated by the Kaplan-Meier analysis. All statistical tests were two-sided.
To test if VDV gene expression could correlate with clinical outcomes, we analyzed VDV gene expression levels in available pre-treatment archival tumor tissue from 103 patients (biomarker evaluable subpopulation) that were enrolled in the XELOX-containing arms. Due to the limited quality and amount of RNA from these clinical samples, gene expression was analyzed in a previously designed and validated “angiogenesis” Fluidigm qRT-PCR chip (FIG. 8B) that included 4 different housekeeping genes (for gene expression normalization), VEGF (as a control), and 22 representative proximal and distal VDV genes comprising: (i) pan-vascular markers such as CD31, CD34, and VE-CADH as indicators of MVD; (ii) key VEGF pathway components and proxVDV genes, including VEGFR-1, VEGFR-2, VEGFR-3, EPHRINB2, NRPs, ESM1, NID2, COL4a2, and LAMA4a; and (iii) additional VDV genes that are components of endothelial signaling pathways and potential modulators of VDV biology, including DLL-4, NOTCH1, ALK1, and EGFL7 (see FIG. 9A for validation of this compacted 22 VDV gene signature).
In these patients, the addition of bevacizumab to chemotherapy provided a statistically significant PFS (HR, 0.59; 95% CI, 0.37 to 0.93; p=0.024) and OS benefit (HR, 0.45; 95% CI, 0.23 to 0.85; p=0.015). […] We then tested the correlation between clinical outcomes and “high” or “low” pre-treatment gene expression. […] In contrast, in “VDV high” patients (FIG. 8D, solid lines), the addition of bevacizumab to chemotherapy vs chemotherapy alone provided a marked and significant PFS(HR, 0.36; 95% CI, 0.17 to 0.77; p=0.0079) and OS (HR, 0.31; 95% CI, 0.11 to 0.93; p=0.036) benefit. […] Thus, in this relatively small 103-patient sample set, the higher expression of a collective VDV gene subset correlates specifically with the improved clinical outcome provided by bevacizumab addition to chemotherapy, and has a predictive effect with respect to PFS.

[2] = test system: VDV signature genes in Human Inflammatory Breast Cancer; settings: 19 inflammatory breast cancer patients; one dose as single agent; 21 days post-treatment; published micro-array data; cited from earlier work
[3] = test system: metastatic colorectal carcinoma (CRC); settings: cited from earlier work
[4] = addition to oxaliplatin-based chemotherapy, Saltz et al. 2008

Substance: bevacizumab: recombinant humanized anti-VEGF monoclonal antibody generated according to Presta et al. (1997)
- PFS HR ([1]; 103 biomarker evaluable patients, addition to chemotherapy (XELOX) vs chemotherapy, 95% CI 0.37 to 0.93, p=0.024): 0.59
- OS HR ([1]; 103 biomarker evaluable patients, addition to chemotherapy (XELOX), 95% CI 0.23 to 0.85, p=0.015): 0.45
- OS HR ([1]; "VDV high" patients, 95% CI 0.11 to 0.93, p=0.036): 0.31
- PFS HR ([1]; "VDV high" patients, addition to chemotherapy vs chemotherapy alone, 95% CI 0.17 to 0.77, p=0.0079): 0.36
- OS HR ([1]; "VDV low" patients, 95% CI 0.25 to 1.33, p=0.2): 0.58
- PFS HR ([1]; "VDV low" patients, combination with chemotherapy vs chemotherapy alone, 95% CI 0.47 to 1.62, p=0.67): 0.88
- VDV transcripts post-treatment vs pre-treatment biopsies [2]: clear down regulation of VDV transcripts
- OS differences (secondary endpoint), whole NO16966 study [3, 4]: did not reach statistical significance
- PFS (primary endpoint), whole NO16966 study [3, 4]: significantly improved
- PFS and OS in metastatic CRC ([3]; in combination with chemotherapy, Hurwitz et al. 2004): increase progression free survival (PFS) and overall survival (OS)
